The values that follow come from US9127044B2, “Cyclic depsipeptides” (NOVARTIS AG, priority 2007, dated 2015).

Like-named read-outs stand apart in the source and are kept apart here.

The target of one experiment is human kallikrein 7 (Homo sapiens, UniProt P49862). Put plainly: Kallikrein-7 inhibitory activity in vitro (fluorescence-quenched substrate). It is filed as biochemical. On the procedure: (§1) IC50 for human kallikrein can be measured using the fluorescence-quenched substrate Ac-Glu-Asp(EDANS)-Lys-Pro-Ale-Leu-Phe^Arg-Leu-Gly-Lys(DABCYL)-Glu-NH2 (where ^ indicates the scissile bond, identified by MS analysis) which can be purchased from Biosyntan (Berlin, Germany). Enzymatic reactions are conducted in 50 mM sodium citrate buffer at pH 5.6 containing 150 mM NaCl and 0.05% (w/v) CHAPS. For the determination of IC50 values the assay is performed at room temperature in 384-well plates. All final assay volumes are 30 μl. Test compounds are dissolved in 90% (v/v) DMSO/water and diluted in water (containing 0.05% (w/v) CHAPS) to 3-times the desired assay concentration. The 11 final compound concentrations are: 0.3 nM, 1 nM, 3 nM, 10 nM, 30 nM, 100 nM, 300 nM, 1 μM, 3 μM, 10 μM and 30 μM. For each assay, 10 μl water/CHAPS (±test compound) are added per well, followed by 10 μl protease solution (diluted with 1.5× assay buffer). The protease concentration in final assay solution is 0.2 nM (according to the enzyme concentrations determined by the Bradford method). After 1 hour of incubation at room temperature, the reaction is started by addition of 10 μl substrate solution (substrate dissolved in 1.5× assay buffer, final concentration is 2 μM). […] The IC50 value is calculated from the plot of percentage of inhibition vs. inhibitor concentration using non-linear regression analysis software (XLfit, Vers. 4.0; ID Business Solution Ltd., Guildford, Surrey, UK).
The fluorescence-quenched substrate Ac-Glu-Asp(EDANS)-Lys-Pro-Ale-Leu-Phe^Arg-Leu-Gly-Lys(DABCYL)-Glu-NH2 (where ^ indicates the scissile bond, identified by MS analysis) is purchased from Biosyntan (Berlin, Germany) and kept as a 5 mM stock solution in DMSO at −20° C. All other chemicals are of analytical grade.
Enzymatic reactions are conducted in 50 mM sodium citrate buffer at pH 5.6 containing 150 mM NaCl and 0.05% (w/v) CHAPS.
All protein and peptide containing solutions are handled in siliconized tubes (Life Systems Design, Merenschwand, Switzerland). The compound solutions as well as the enzyme and the substrate solutions are transferred to the 384-well plates (black Cliniplate; cat. no. 95040020 Labsystems Oy, Finland) by means of a CyBi-Well 96-channel pipettor (CyBio AG, Jena, Germany).
(§2) For fluorescence intensity (FI) measurements an Ultra Evolution reader (TECAN, Maennedorf, Switzerland) is used. The instrument is equipped with a combination of a 350 nm (20 nm bandwidth) and a 500 nm (25 nm bandwidth) bandpass filter for fluorescence excitation and emission acquisition, respectively. To increase the signal:background ratio, an appropriate dichroic mirror is employed. The optical filters and the dichroic mirror are purchased from TECAN. The fluorophores in each well are excited by three flashes per measurement.
as §1, with “For” for “IC50 for human kallikrein can be measured using the fluorescence-quenched substrate Ac-Glu-Asp(EDANS)-Lys-Pro-Ale-Leu-Phe^Arg-Leu-Gly-Lys(DABCYL)-Glu-NH2 (where ^ indicates the scissile bond, identified by MS analysis) which can be purchased from Biosyntan (Berlin, Germany). Enzymatic reactions are conducted in 50 mM sodium citrate buffer at pH 5.6 containing 150 mM NaCl and 0.05% (w/v) CHAPS. For”, “volumes were” for “volumes are”, “concentration was” for “concentration is”

The target of experiment [1] is T1, Human neutrophil elastase (Homo sapiens, UniProt P08246).
T1 construct: purchased Elastin Products Company, Inc. (EPC, Owensville, USA) SE563
T1 sequence (P08246 30-267): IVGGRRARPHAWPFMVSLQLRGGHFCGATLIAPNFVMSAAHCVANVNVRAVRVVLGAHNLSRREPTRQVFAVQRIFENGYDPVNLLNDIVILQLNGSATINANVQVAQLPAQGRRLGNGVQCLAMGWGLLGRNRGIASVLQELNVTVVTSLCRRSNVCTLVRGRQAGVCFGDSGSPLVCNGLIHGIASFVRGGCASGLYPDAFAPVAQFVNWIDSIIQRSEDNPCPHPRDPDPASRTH
Put plainly: HNE inhibitory activity in vitro (fluorescence-quenched substrate). It is filed as biochemical. Conditions: Table 11; read-out: human neutrophile elastase IC 50. On the procedure:
Human neutrophil elastase (cat. no. SE563) is purchased from Elastin Products Company, Inc. (EPC, Owensville, USA). The dry powder (purity >95% stated by the supplier) was dissolved in 20 mM sodium acetate buffer, pH 5.0, 50% (v/v) glycerol, and frozen at −80° C. in aliquots.
The fluorescence-quenched substrate (DABCYL-Ser-Glu-Val^Asn-Leu-Asp-Ala-Glu-Phe-EDANS, where ^ indicates the scissile bond, identified by MS analysis) was purchased from Bachem AG (Bubendorf, Switzerland), and kept as a 5 mM stock solution in DMSO at −20° C. All other chemicals were of analytical grade.
Enzymatic reactions were conducted in 100 mM Tris/HCl buffer at pH 7.5, containing 500 mM NaCl, and 0.05% (w/v) CHAPS.
All protein and peptide containing solutions are handled in siliconized tubes (Life Systems Design, Merenschwand, Switzerland).
The compound solutions as well as the enzyme and the substrate solutions are transferred to the 384-well plates (black Cliniplate; cat. no. 95040020 Labsystems Oy, Finland) by means of a CyBi-Well 96-channel pipettor (CyBio AG, Jena, Germany).
as §2

Setting [2] is: Table 11, read-out: hKallikrein7 IC 50.

Sequence of human kallikrein 7 (P49862 30-253): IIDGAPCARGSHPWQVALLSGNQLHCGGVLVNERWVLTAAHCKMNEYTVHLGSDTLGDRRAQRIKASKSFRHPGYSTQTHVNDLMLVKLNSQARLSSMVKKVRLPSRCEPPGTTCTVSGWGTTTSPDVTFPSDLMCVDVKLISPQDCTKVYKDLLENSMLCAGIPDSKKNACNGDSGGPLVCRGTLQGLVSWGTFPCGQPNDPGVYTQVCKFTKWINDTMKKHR

On to `CCC(C)C1NC(=O)C(Cc2ccc(OC(=O)OC3CCC4(C)C(=CCC5C4CCC4(C)C(C(C)CCCC(C)C)CCC54)C3)cc2)N(C)C(=O)C(C(C)CC)N2CCCC(NC(=O)C(CC(C)C)NC(=O)C(NC(=O)C(CCC(N)=O)NC(=O)C(C)C)C(C)OC1=O)C2=O` (stereo not drawn) [example 30], for which the IC50 turned out to be 1050 nM at human kallikrein 7 (setting [2]) and 4550 nM in experiment [1].

`CCCCCCCCOC(=O)Oc1ccc(C[C@H]2C(=O)N[C@@H](C(C)CC)C(=O)O[C@H](C)[C@H](NC(=O)[C@H](CCC(N)=O)NC(=O)C(C)C)C(=O)N[C@@H](CC(C)C)C(=O)NC3CCCN(C3=O)[C@@H](C(C)CC)C(=O)N2C)cc1` (stereo partly drawn) [example 31]: the figures for the IC50 (on human kallikrein 7 (setting [2]); in experiment [1]) were 200 nM and 300 nM, respectively.

Turning to `CCCOC1CCC2NC(=O)C(CC(C)C)NC(=O)C(NC(=O)C(CCC(N)=O)NC(=O)C(C)C)C(C)OC(=O)C(C(C)CC)NC(=O)C(Cc3ccc(OCC=Cc4ccccc4)cc3)N(C)C(=O)C(C(C)CC)N1C2=O` (stereo not drawn) [example 32], the IC50 on human kallikrein 7 (setting [2]) turned out to be 100 nM; in experiment [1] it was 30 nM.

As for `CCC(C)[C@@H]1NC(=O)[C@H](Cc2ccc(OCC(=O)OC(C)(C)C)cc2)N(C)C(=O)[C@H](C(C)CC)N2CCCC(NC(=O)[C@H](CC(C)C)NC(=O)[C@@H](NC(=O)[C@H](CCC(N)=O)NC(=O)C(C)C)[C@@H](C)OC1=O)C2=O` (stereo partly drawn) [example 33], the IC50 was 4.5 nM on human kallikrein 7 (setting [2]), 5 nM on human kallikrein 7 (read-out: IC50 for human kallikrein 7) and 35 nM in experiment [1].

With `CCCOC1CCC2NC(=O)C(CC(C)C)NC(=O)C(NC(=O)C(CCC(N)=O)NC(=O)C(C)C)C(C)OC(=O)C(C(C)CC)NC(=O)C(Cc3ccc(OCC(=O)OC(C)(C)C)cc3)N(C)C(=O)C(C(C)CC)N1C2=O` (stereo not drawn) [example 34], the IC50 is 4 nM on human kallikrein 7 (setting [2]) and 5 nM in experiment [1].

`CCC=CCOc1ccc(CC2C(=O)NC(C(C)CC)C(=O)OC(C)C(NC(=O)C(CCC(N)=O)NC(=O)C(C)C)C(=O)NC(CC(C)C)C(=O)NC3CCC(OCCC)N(C3=O)C(C(C)CC)C(=O)N2C)cc1` (stereo not drawn) [example 35]: the IC50 at human kallikrein 7 (setting [2]) turned out to be 8.5 nM; in experiment [1], 3 nM.

As to `CCCOC1CCC2NC(=O)C(CC(C)C)NC(=O)C(NC(=O)C(CCC(N)=O)NC(=O)C(C)C)C(C)OC(=O)C(C(C)CC)NC(=O)C(Cc3ccc(OCC=CC(F)(F)F)cc3)N(C)C(=O)C(C(C)CC)N1C2=O` (stereo not drawn) [example 36], the values for the IC50 (on human kallikrein 7 (setting [2]); in experiment [1]) were 8.5 nM and 3.5 nM, respectively.

As to `CCCOC1CCC2NC(=O)C(CC(C)C)NC(=O)C(NC(=O)C(CCC(N)=O)NC(=O)C(C)C)C(C)OC(=O)C(C(C)CC)NC(=O)C(Cc3ccc(OC)cc3)N(C)C(=O)C(C(C)CC)N1C2=O` (stereo not drawn) [example 37], the results for the IC50 (on human kallikrein 7 (setting [2]); in experiment [1]) were 4.5 nM and 2.5 nM, respectively.

Regarding `CCCOC1CCC2NC(=O)C(CC(C)C)NC(=O)C(NC(=O)C(CCC(N)=O)NC(=O)C(C)C)C(C)OC(=O)C(C(C)CC)NC(=O)C(Cc3ccc(OCC=C(C)C)cc3)N(C)C(=O)C(C(C)CC)N1C2=O` (stereo not drawn) [example 38], the IC50 was 4 nM on human kallikrein 7 (setting [2]) and 1.5 nM in experiment [1].

On to `CCCOC1CCC2NC(=O)C(CC(C)C)NC(=O)C(NC(=O)C(CCC(N)=O)NC(=O)C(C)C)C(C)OC(=O)C(C(C)CC)NC(=O)C(Cc3ccc(OCc4ccccc4)cc3)N(C)C(=O)C(C(C)CC)N1C2=O` (stereo not drawn) [example 39], for which the IC50 at human kallikrein 7 (setting [2]) was 8.5 nM; in experiment [1], 3.5 nM.

As for `C=CCOc1ccc(CC2C(=O)NC(C(C)CC)C(=O)OC(C)C(NC(=O)C(CCC(N)=O)NC(=O)C(C)C)C(=O)NC(CC(C)C)C(=O)NC3CCC(OCCC)N(C3=O)C(C(C)CC)C(=O)N2C)cc1` (stereo not drawn) [example 40], the IC50 was 6.5 nM at human kallikrein 7 (setting [2]) and 2.5 nM in experiment [1].

For the compound `C#CCOc1ccc(CC2C(=O)NC(C(C)CC)C(=O)OC(C)C(NC(=O)C(CCC(N)=O)NC(=O)C(C)C)C(=O)NC(CC(C)C)C(=O)NC3CCC(OCCC)N(C3=O)C(C(C)CC)C(=O)N2C)cc1` (stereo not drawn) [example 41], the figures for the IC50 (on human kallikrein 7 (setting [2]); in experiment [1]) were 2 nM and 1 nM, respectively.

Turning to `CCCOC1CCC2NC(=O)C(CC(C)C)NC(=O)C(NC(=O)C(CCC(N)=O)NC(=O)C(C)C)C(C)OC(=O)C(C(C)CC)NC(=O)C(Cc3ccc(OCc4cc(C)n(C)n4)cc3)N(C)C(=O)C(C(C)CC)N1C2=O` (stereo not drawn) [example 42], the IC50 (at human kallikrein 7 (setting [2]); in experiment [1]) was 1 nM in each case.
